The text below walks through data of patent publication US8648045B2, “VDAC1 compositions and methods of use thereof for regulating apoptosis” (Ben Gurion University of the Negev Research and Development …, priority 2005, dated 2014).

Where two headings read alike, the source gives them in different places. Peptide text beside a SMILES is read from it.

For orientation: IC50 means the concentration that inhibits the measured activity by half.

For test [1], the system named is B-16. Put plainly: Apoptosis induction by various stimuli (acridine orange/ethidium bromide staining). Format: cell-based, mouse. As to the method:
(§1) Cells were plated at a density of 5.4×10^4 cells/cm^2 in 24-well plates, washed once with PBS and placed in serum-free medium. Cells were then incubated with or without RuR or Ru360. Cells were also treated with […] staurosporine (STS) to induce apoptosis and analyzed for viability 3, 5 and 7 hrs after STS addition. Treatments with curcumin (120 μM) or As2O3 (20 μM) were carried out for 48 hrs.
(§2) To determine cell viability, cells were stained with 100 μg/ml acridine orange (AcOr) and 100 μg/ml ethidium bromide (EtBr) in PBS. Cells were centrifuged at 1500×g for 5 min at room temperature and resuspended in 25 μl of complete medium, to which 2 μl of AcOr/EtBr solution were added. The cells were then visualized by fluorescence microscopy (Olympus IX51) and images were recorded on an Olympus DP70 camera, using a SWB filter.
(§3) Cells were incubated with curcumin (120 μM) or As2O3 (20 μM) for 48 hrs, or with STS (1.25 μM) for 7 hrs. Cell viability was analyzed by acridine orange/ethidium Bromide staining. In each independent experiment, approximately 250 cells were counted for each treatment, in which early and late apoptotic cells were also counted. The data shown in table 3 is the mean±S.E.M. (n=3).

The test system of test [2] is Panc. The test is described as above. In kind it is cell-based, human. How it is done:
as §1, §2, §3

Test [3] deals with HeLa. The description is as above. In kind it is cell-based, human. How it is done:
as §1, §2, §3

Test [4] relates to Du-145. Described as above. Format: cell-based, human. How it is done:
as §1, §2, §3

In test [5] the test system is PBMCs isolated from CLL patients. Format: cell-based, human. How it is done:
Peripheral blood mononuclear cells (PBMCs) were isolated from venous blood of patients with chronic lymphocytic leukemia (CLL) by Ficoll-Paque PLUS (GE Healthcare, Israel) density gradient centrifugation. After informed consent, venous blood (10 ml) was drawn from CLL patients satisfying diagnostic criteria for CLL or from normal adult donors. Blood was collected into heparin tubes and diluted 1:1 with balance solution (composed of two stock solutions, A and B, in 1:9 ratio, respectively. Solution A contained: D-glucose 1%, CaCl2 5×10^−5M, MgCl2 9.8×10^−4M, KCl 5.4×10^−3M, Tris 0.145M, pH 7.6. Solution B contained NaCl 0.14M. The balance solution was prepared freshly every week. The diluted blood sample was subsequently carefully layered on Ficoll-Paque Plus (10 ml of diluted blood: 15 ml Ficoll) in 50 ml conical tubes. Tubes were centrifuged at 400×g (with minimal acceleration and deceleration) for 40 minutes at 18-20° C. The mononuclear cells fine layer was transferred to a new centrifuge tube. Cells were washed 3 times with balance solution and re-suspended in a culture medium appropriate to the application.
(§4) PBMCs (2×10^6 cells/sample) from CLL patients and healthy donors were treated with various concentrations of the peptide Antp-LP4-trp for 90 minutes. Cells were then gently washed once with PBS and stained with propidium iodide (PI) by adding 2.5 μl (1 mg/ml) and immediately analyzed for cell death. The level of cell death, reflected by the percentage of PI-positive cells, was determined by a flow cytometry analysis.
(§5) Preipheral blood mononuclear cells (PMBC) isolated from pateints having chronic lymphocytic leukemia (CLL) and MEC-1 cell lines (human chronic B-cell leukemia) were incubated for 90 min with Peptide N-ANTP (SEQ ID NO:73) at concentrations of 10-40 μM. Cell death was measured by PI staning and FACS analysis.
In ex vivo experiments, peripheral blood mononuclear cells (PBMCs) isolated from healthy individuals or CLL patients were incubated for 90 min with the indicated concentration of the ANTP-LP4-trp peptide. Cell death was assayed by PI staining and FACS analysis (healthy donors, n=34; CLL donors, n=39).

Test [6] relates to MEC-1 cell line. Format: cell-based, human. How it is done: as §4, §5
In test [7] the test system is U937 cells. The experiment in a line: HK-I over-expression protection against apoptotic cell death in double-transfected cells. Format: cell-based, human. Conditions: U937 or T-Rex 293 cells stably over-expressing HK-I, mVDAC1-GFP constructs. As to the method:
U937 cells were transfected with pcDNA3.1-HisA or pcDNA3.1-HisA-HK-I (neomycin resistance; provided by Dr. J. E. Wilson, University of Michigan) by electroporation, and grown in complete RPMI 1640 with neomycin ([…]). After 12 days, the selected cells were transfected with pEGFP, pEGFP-mVDAC1 or pEGFP-E72Q-mVDAC1 and were grown in the presence of neomycin ([…]). The viability of double-transfected cells was analyzed during 48 to 76 hr.
The effect of HK-I over-expression on apoptotic cell death of the GFP-tagged version of native and E72Q-mVDAC1 over-expressing cells was examined.
Since VDAC1 overexpression induces cell death, U937 cells (FIG. 4A, 4B) or T-Rex™ 293 human embryonic kidney cells (FIG. 4B) were first transformed to stably over-express HK-I and then transfected with native, E65Q, E72Q, K73L, D77N, N75A, or G67A mutated mVDAC1-GFP. […] This β-loop includes amino acid residues T64 to about N78.

The test system of test [8] is U937 cells. The experiment in a line: Apoptotic cell death of U937 cells transfected with native or mutated mVDAC1, with/without RuR (acridine orange/ethidium bromide staining). In kind it is cell-based, human. How it is done:
Logarithmically-growing U937 cells were resuspended in RPMI 1640 supplemented with 10% FCS, 100 U/ml penicillin and […] streptomycin at a concentration of 2.5×10^7 cells/ml. Cells were transfected to express rat or murine VDAC1 using the vectors pEGFP, pEGFP-VDAC1, pEGFP-E72Q-mVDAC1, pE-mVDAC1 or pE-E72Q-mVDAC1. Transfection of the U937 cells was performed by electroporation with a single pulse from a Bio-Rad micropulser II with a capacitance extender unit (200 V, […]). Cells were incubated on ice for 10 min before and after transfection, and then resuspended in 20 ml of RPMI 1640 supplemented with 10% FCS, 1 mM l-glutamine, 100 U/ml penicillin and […] streptomycin. […] GFP-positive cells were viewed under a microscope using a blue filter.
as §1
Fifty six (56) hr after transfection, cells were exposed for 20 hr to RuR (1 μM) and cell viability was analyzed using acridine orange/ethidium bromide staining. In each independent experiment, approximately 250 cells were counted for each including early and late apoptotic cells. Data shown in FIG. 5 and Table 2 are the mean±SEM (n=3).

`O=[As]O[As]=O` (centres unmarked) [As2O3]: the “Apoptotic cell death, % of control” value in test [1] (As2O3 20 μM, 48 hrs) was 15.0 ± 1.99 % of control; in test [2] (As2O3 20 μM, 48 hrs), 67.20 ± 3.87 % of control; in test [3] (As2O3 20 μM, 48 hrs) it was 24.67 ± 2.65 % of control; in test [4] (As2O3 20 μM, 48 hrs), 6.0 ± 0.80 % of control.

`COc1cc(/C=C/C(=O)CC(=O)/C=C/c2ccc(O)c(OC)c2)ccc1O` [Curcumin, curcumin]: the “Apoptotic cell death, % of control” value is listed as 37.47 ± 2.20 % of control in test [1] (curcumin 120 μM, 48 hrs); 70.77 ± 4.31 % of control in test [2] (curcumin 120 μM, 48 hrs); 36.2 ± 0.70 % of control in test [3] (curcumin 120 μM, 48 hrs); 8.93 ± 0.47 % of control in test [4] (curcumin 120 μM, 48 hrs).

Turning to `CN[C@@H]1C[C@H]2O[C@@](C)([C@@H]1OC)n1c3ccccc3c3c4c(c5c6ccccc6n2c5c31)C(=O)NC4` [STS, staurosporine], the “Apoptotic cell death, % of control” value in test [1] (STS 1.25 μM, 7 hrs) was 63.12 ± 0.71 % of control; in test [2] (STS 1.25 μM, 7 hrs), 84.90 ± 2.06 % of control; in test [3] (STS 1.25 μM, 7 hrs), 72.37 ± 1.30 % of control; in test [4] (STS 1.25 μM, 7 hrs), 13.57 ± 4.73 % of control.

On to `CC(C)C[C@H](NC(=O)[C@H](CC(N)=O)NC(=O)[C@@H](NC(=O)[C@H](C)NC(=O)[C@@H](NC(=O)[C@H](CCC(=O)O)NC(=O)[C@H](CC(C)C)NC(=O)[C@H](CCCCN)NC(=O)[C@H](CCCCN)NC(=O)[C@H](CCC(=O)O)NC(=O)[C@H](Cc1c[nH]c2ccccc12)NC(=O)[C@@H](NC(=O)[C@H](Cc1c[nH]c2ccccc12)NC(=O)[C@H](CO)NC(=O)CNC(=O)CNC(=O)[C@H](CCCNC(=N)N)NC(=O)[C@H](CCCNC(=N)N)NC(=O)[C@H](CCCNC(=N)N)NC(=O)[C@H](CCC(N)=O)NC(=O)[C@H](CCCNC(=N)N)NC(=O)[C@H](CCCNC(=N)N)NC(=O)[C@H](CCCCN)NC(=O)[C@H](CCCCN)NC(=O)[C@@H](N)CCCNC(=N)N)[C@@H](C)O)[C@@H](C)O)C(C)C)C(=O)N[C@@H](C)C(=O)N[C@@H](Cc1c[nH]c2ccccc12)C(=O)N[C@H](C(=O)N[C@@H](C)C(=O)NCC(=O)N[C@@H](CC(N)=O)C(=O)N[C@@H](CO)C(=O)N[C@@H](CC(N)=O)C(=O)N[C@@H](CCCCN)C(=O)N[C@@H](Cc1c[nH]c2ccccc12)C(=O)N[C@H](C(=O)N[C@@H](Cc1c[nH]c2ccccc12)C(=O)N[C@@H](CCCCN)C(=O)O)[C@@H](C)O)[C@@H](C)O` [TAT-LP4-trp] (H-RKKRRQRRRGGSWTWEKKLETAVNLAWTAGNSNKWTWK-OH; N-terminus and C-terminus assumed), for which the IC50 in test [5] (peptide concentration required to induce apoptosis in 50% of the cells, PBMC from CLL patients, read-out: IC50 μM CLL) lay within 3.5 to 4 µM; in test [6] (peptide concentration required to induce apoptosis in 50% of the cells, MEC-1, read-out: IC50 μM MEC-1), 6 to 7 µM.

For the molecule `CC[C@H](C)[C@H](NC(=O)[C@H](C)NC(=O)[C@@H](N)Cc1c[nH]cn1)C(=O)N[C@@H](Cc1ccc(O)cc1)C(=O)N1CCC[C@H]1C(=O)N[C@@H](CCCNC(=N)N)C(=O)N[C@@H](Cc1c[nH]cn1)C(=O)N[C@@H](CO)C(=O)N[C@@H](Cc1c[nH]c2ccccc12)C(=O)N[C@H](C(=O)N[C@@H](Cc1c[nH]c2ccccc12)C(=O)N[C@@H](CCC(=O)O)C(=O)N[C@@H](CCCCN)C(=O)N[C@@H](CCCCN)C(=O)N[C@@H](CC(C)C)C(=O)N[C@@H](CCC(=O)O)C(=O)N[C@H](C(=O)N[C@@H](C)C(=O)N[C@H](C(=O)N[C@@H](CC(N)=O)C(=O)N[C@@H](CC(C)C)C(=O)N[C@@H](C)C(=O)N[C@@H](Cc1c[nH]c2ccccc12)C(=O)N[C@H](C(=O)N[C@@H](C)C(=O)NCC(=O)N[C@@H](CC(N)=O)C(=O)N[C@@H](CO)C(=O)N[C@@H](CC(N)=O)C(=O)N[C@@H](CCCCN)C(=O)N[C@@H](Cc1c[nH]c2ccccc12)C(=O)N[C@H](C(=O)N[C@@H](Cc1c[nH]c2ccccc12)C(=O)N[C@@H](CCCCN)C(=O)O)[C@@H](C)O)[C@@H](C)O)C(C)C)[C@@H](C)O)[C@@H](C)O` [Tf-LP4-trp], the IC50 in test [5] fell in the range of 1.5 to 2 µM; in test [6], 2.4 to 3 µM.

In the case of “D77N-mVDAC1: VDAC1 polypeptide variant D77N [Peptide D77N-mVDAC1]”, in test [7], the “protective effect of HK-I over-expression against cell death induced by mVDAC1 over-expression” value (shortened to “protective effect … by mVDAC1 over-expression”) is “no protective effect”.

Consider “E65Q-mVDAC1: VDAC1 polypeptide variant E65Q [Peptide E65Q-mVDAC1]”, for which, in test [7], the “protective effect … by mVDAC1 over-expression” value is listed as “no protective effect”.

Consider “E72Q-mVDAC1: VDAC1 polypeptide variant E72Q [Peptide E72Q-mVDAC1]”, for which the “protective effect … by mVDAC1 over-expression” value in test [7] is listed as “no protective effect”.

For the molecule “E72Q-mVDAC-GFP: GFP-tagged E72Q mVDAC1 variant”, in test [8] (protection by RuR (1 μM) against apoptosis of transfected U937 cells), the “% of protection” value worked out at 0%. Further, the “Apoptotic cells, % −RuR” value in test [8] (transfected U937 cells, without RuR, mean±SEM (n=3)) is 71.9 ± 4.7%. The “Apoptotic cells, % +RuR” value in test [8] (transfected U937 cells, 56 hr after transfection exposed 20 hr to RuR (1 μM), mean±SEM (n=3)) was 71.6 ± 4.4%.

In the case of “E202Q-mVDAC1: VDAC1 polypeptide variant E202Q [Peptide E202Q-mVDAC1]”, the “protective effect … by mVDAC1 over-expression” value in test [7] is recorded as “no protective effect”.

Turning to “G67A-mVDAC1: VDAC1 polypeptide variant G67A [Peptide G67A-mVDAC1]”, in test [7], the “protective effect … by mVDAC1 over-expression” value is given as “dramatically reduced”.

Consider “K73L-mVDAC1: VDAC1 polypeptide variant K73L [Peptide K73L-mVDAC1]”, for which the “protective effect … by mVDAC1 over-expression” value in test [7] is recorded as “no protective effect”.

“N75A-mVDAC1: VDAC1 polypeptide variant N75A [Peptide N75A-mVDAC1]”: the “protective effect … by mVDAC1 over-expression” value in test [7] is recorded as “dramatically reduced”.
